Several values for one entry are separate records, joined by “and”; a condition that tells them apart may be missing. Equal entries are not always repeated. Where two headings read alike, the source gives them in different places. Blank lines part the entries; values can stand above or below the molecule they belong to.
What was measured:
[1] = type: physicochemical; conditions: 25 mM, pH 7.0-7.4, tsat=3 sec, ω1=3.6 μT, 37° C., 11.7 T
Description: 25 mM salicylic acid analogs (4-11) were made at pH 7.1-7.4 and tested with the phantom condition as described above. The Z-spectra were obtained by using Tsat=3 sec, ω1=3.6 μT at 37° C. […] CEST contrast was quantified by MTRasym=(S−Δω−S+Δω))/S0 after a voxel-by-voxel B0 correction, with characterized mean Z-spectra and MTRasym spectra for sample ROIs plotted and the typical results were summarized in FIG. 3A.

[2] = QUESP measurement of proton exchange rate (ksw) of salicylic acid; type: physicochemical; conditions: 25 mM, pH 7.0, QUESP
Description: The parameters for all fitting were: R1w=0.3, R2w=0.6, R1s=0.71, R2s=39, Tsat=3s.

[3] = type: in vivo, mouse; conditions: mice, i.v., 9.3 ppm, 7.2 μT
Description: In particular, images consisting of a single axial slice containing both kidneys were collected. Because the B0 inhomogeneity was less than 200 Hz for these animals, a two-point collection scheme was used to limit the scan time, which is also allowed by the use of the 7.2 μT field strength. […] A Z-spectrum was acquired before injection. […] According to the initial results in FIGS. 4F-4G, the in vivo data collection scheme was modified in order to improve the kinetic data for compound 1 in the kidney. […] In vivo images were acquired on a Bruker Biospec 11.7 T horizontal bore MR scanner, with one axial slice of 1.5 mm thickness obtained through the medulla of both kidneys. […] The BALB/c mice (n=2) weighing 20-25 g (Charles River Laboratories, Wilmington, Mass.) were maintained under specific pathogen free conditions in the animal facility of Johns Hopkins University. […] Breath rate was monitored throughout in vivo MRI experiments using a respiratory probe. […] BALB/c mice weighing 20-25 g (Charles River Laboratories, Wilmington, Mass.) were maintained under specific pathogen free conditions in the animal facility of Johns Hopkins University. […] Breath rate was monitored throughout in vivo MRI experiments using a respiratory probe. A 60 μL, volume of a 0.25 M salicylic acid solution in PBS (pH 7) was slowly injected via a catheter into the tail vein. […]

[4] = QUESP/QUEST determination of ksw of anthranilic acid analogs; type: physicochemical
[5] = type: physicochemical; conditions: 10 mM, pH 7.3-7.4, tsat = 3 sec, ω1 = 3.6 μT, 37° C.
[6] = pH 7.1-7.4, B1=3.6 μT, Tsat=3 s, 37° C., 11.7 T
Description: The solutions were placed into 1 mm glass capillaries and assembled in a holder for CEST MR imaging. They were kept at 37° C. during imaging.
CEST contrast was quantified using MTRasym=[S(−Δω)−S(+Δω))]/S0 for phantom and 1−S(+Δω))/S(−Δω) in vivo to increase the temporal resolution and reduce the motion where S(+Δω) represents water signal intensity with a saturation pulse applied at the frequency+Δω and S0 represents the water signal without a saturation pulse.

[7] = neutral pH; cited from earlier work
[8] = 10 mM, pH 7.3-7.4, 37° C.
Description: The samples were kept at 37° C. during imaging. […] TR=15 s, TE=8 ms, matrix size=64×32, slice thickness=3 mm.
The relaxation parameters for each fit were: R1w=0.26 s^−1, R2w=0.43 s-1, R1s=0.71 s^−1, R2s=39 s^−1. These were determined by fitting the direct water saturation line for PBS and were fixed for subsequent fits of each compound with the exchange rate allowed to vary. All data was processed using Python, Scipy, and Numpy (www.python.org, scipy.org, and numpy.scipy.org, respectively).

[9] = in vivo; cited from earlier work
[10] = 48.5 tM iopamidol; cited from earlier work

Compound: O=C(O)c1ccc(O)cc1O [2,4-Dihydroxy benzoic acid]
LD50 [9]: 800 mg/kg

Compound: Nc1ccc(C(=O)O)c(O)c1 [Compound 17]
Signal (ppm) ([5]; Table 2): 9.5 ppm
kex ([8]; Table 2): 384 s⁻¹

Compound: Nc1ccc(C(=O)O)c(O)c1 [4-amino salicylic acid]
LD50 [9]: 4,250 mg/kg

Compound: O=C(O)c1ccccc1NC(=O)C(F)(F)F [Compound 41]
Signal (ppm) ([5]; Table 5): 9.3 ppm
kex ([8]; Table 5): 190 s⁻¹

Compound: O=C(O)c1cc2ccccc2c(Cc2c(O)c(C(=O)O)cc3ccccc23)c1O [Compound 44, Pamoic acid]
Signal (ppm) ([5]; Table 6): 9.5 ppm
kex ([8]; Table 6): 130 s⁻¹

Compound: CS(=O)(=O)Nc1ccc(N)cc1C(=O)O [Compound 38]
Signal (ppm) ([5]; Table 5): 6.3 ppm
kex ([8]; Table 5): 550 s⁻¹

Compound: C[C@H](O)C(=O)Nc1c(I)c(C(=O)NC(CO)CO)c(I)c(C(=O)NC(CO)CO)c1I [iopamidol]
optimal time to observe the contrast [10]: 45 min

Compound: O=C(O)c1ccccc1Nc1cccc(C(F)(F)F)c1 [Compound 5, flufenamic acid, reference compound]
LD50 [9]: 150 mg/kg

Second part, led by results:

chemical shift of CEST contrast (exchangeable proton) from water [1]: 9.3 ppm
proton exchange rate with water (ksw) [2]: 1.2 ks^−1
ksw ([4]; pH 6.5): 2.4 kHz
ksw ([4]; pH 7.8): 0.4 kHz
Signal (ppm) ([5]; Table 1): 9.3 ppm
CEST frequency / labile proton chemical shift from water [6]: 9.3 ppm
kex ([8]; Table 1): 400 s⁻¹
Compound: O=C(O)c1ccccc1O [Compound 1, salicylic acid]
average CEST contrast over the whole kidney [3]: 6.0±0.8% and 6%
exchange rate (previously reported) [7]: 600 s⁻¹

Signal (ppm) ([5]; Table 4): 9.0 ppm
kex ([8]; Table 4): 410 s⁻¹
Compound: Nc1cccc(C(=O)O)c1O [Compound 33, 3-aminosalicylic acid]

Signal (ppm) ([5]; Table 6): 9.8 ppm
kex ([8]; Table 6): 460 s⁻¹
Compound: O=C(O)c1cc(C(=O)O)c(O)cc1O [Compound 43, 4,6-dihydroxyisophthalic acid]

Signal (ppm) ([5]; Table 3): 9.0 ppm
kex ([8]; Table 3): 4900 s⁻¹
Compound: COc1cccc(O)c1C(=O)O [Compound 21, 6-methoxysalicylic acid]

Signal (ppm) ([5]; Table 2): 9.3 ppm
kex ([8]; Table 2): 420 s⁻¹
Compound: O=C(O)c1ccc(C(=O)O)c(O)c1 [Compound 18]

Signal (ppm) ([5]; Table 4): 9.3 ppm
kex ([8]; Table 4): 480 s⁻¹
Compound: COc1cccc(C(=O)O)c1O [Compound 32, 3-methoxysalicylic acid]

Signal (ppm) ([5]; Table 4): 10.8 ppm
kex ([8]; Table 4): 310 s⁻¹
Compound: O=C(O)c1cc(I)cc(I)c1O [Compound 28]

Signal (ppm) ([5]; Table 3): 9.3 ppm
kex ([8]; Table 3): 30 s⁻¹
Compound: O=C(O)c1c(O)cccc1O [Compound 22, 2,6-dihydroxybenzoic acid]
